From ChEMBL document CHEMBL5338717, “Discovery of novel PDE4 inhibitors targeting the M-pocket from natural mangostanin with improved safety for the treatment of Inflammatory Bowel Diseases” (Eur J Med Chem, 2022)
Activity calls are given as the source filed them. The calls are words filed in the database; no cut-off is given here.

Columns and labels:
[1] = biological target: T1, 3',5'-cyclic-AMP phosphodiesterase 4D (Homo sapiens, UniProt Q08499); assay: Inhibition of recombinant PDE4D2 (86 to 413 residues) (unknown origin) expressed in Escherichia coli BL21 using [3H]cAMP as substrate incubated for 15 mins by liquid scintillation method
T1 sequence (Q08499 whole entry, the tested form may be a part): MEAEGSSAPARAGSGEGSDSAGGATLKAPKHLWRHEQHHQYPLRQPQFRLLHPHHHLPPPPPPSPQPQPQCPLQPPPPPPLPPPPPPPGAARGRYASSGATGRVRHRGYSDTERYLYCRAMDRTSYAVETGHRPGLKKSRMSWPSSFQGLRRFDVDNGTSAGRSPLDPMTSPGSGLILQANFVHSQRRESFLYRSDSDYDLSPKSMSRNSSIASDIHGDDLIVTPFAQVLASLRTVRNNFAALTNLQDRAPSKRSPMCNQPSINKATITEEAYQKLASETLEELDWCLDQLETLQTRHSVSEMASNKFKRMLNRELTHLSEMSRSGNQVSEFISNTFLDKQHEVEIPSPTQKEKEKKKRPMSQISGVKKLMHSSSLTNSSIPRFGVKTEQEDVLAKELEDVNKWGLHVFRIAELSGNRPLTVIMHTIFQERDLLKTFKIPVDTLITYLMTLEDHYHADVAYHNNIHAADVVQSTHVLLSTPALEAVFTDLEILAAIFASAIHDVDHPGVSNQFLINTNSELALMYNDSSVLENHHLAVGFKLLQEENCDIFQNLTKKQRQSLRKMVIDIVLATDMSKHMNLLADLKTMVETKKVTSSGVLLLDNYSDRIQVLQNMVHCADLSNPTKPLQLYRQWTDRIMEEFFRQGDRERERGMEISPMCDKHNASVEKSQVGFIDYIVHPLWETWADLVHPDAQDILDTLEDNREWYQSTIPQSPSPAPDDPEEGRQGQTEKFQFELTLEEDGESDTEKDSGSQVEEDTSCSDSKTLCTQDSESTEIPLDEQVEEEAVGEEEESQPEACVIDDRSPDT

[2] = Metabolic stability in rat liver microsomes assessed as half life; type: ADME, Microsome
[3] = Inhibition of PDE7 (unknown origin); design: species or system Homo sapiens
Mus musculus [4] = assay: Anti-inflammatory bowel disease activity in DSS-induced inflammatory bowel disease C57BL/6 mouse model assessed as increase in body weight at 25 mg/kg, iv BID and measured after 8 days […]; type: functional, organism-based; details: time 8.0 day
Mus musculus [5] = assay: Anti-inflammatory bowel disease activity in DSS-induced inflammatory bowel disease C57BL/6 mouse model assessed as decrease in mucosal ulceration in colon at 25 mg/kg, iv BID and measured after 8 days by Haematoxylin and eosin staining based microscopy; type: functional, organism-based; details: time 8.0 day
Mus musculus [6] = assay: Anti-inflammatory bowel disease activity in DSS-induced inflammatory bowel disease C57BL/6 mouse model assessed as decrease in diarrhoea by measuring disease activity index score at 25 mg/kg, iv BID and measured upto 8 days; type: functional, organism-based; details: time <= 8.0 day
Mus musculus [7] = assay: Anti-inflammatory bowel disease activity in DSS-induced inflammatory bowel disease C57BL/6 mouse model assessed as decrease in body weight loss by measuring disease activity index score at 25 mg/kg, iv BID and measured upto 8 days; type: functional, organism-based; details: time <= 8.0 day
Mus musculus [8] = assay: Anti-inflammatory bowel disease activity in DSS-induced inflammatory bowel disease C57BL/6 mouse model assessed as decrease in epithelial damage in colon at 25 mg/kg, iv BID and measured after 8 days by Haematoxylin and eosin staining based microscopy; type: functional, organism-based; details: time 8.0 day
Mus musculus [9] = assay: Anti-inflammatory bowel disease activity in DSS-induced inflammatory bowel disease C57BL/6 mouse model assessed as increase in colon length at 25 mg/kg, iv BID and measured upto 8 days; type: functional, organism-based; details: time <= 8.0 day
Mus musculus [10] = assay: Anti-inflammatory bowel disease activity in DSS-induced inflammatory bowel disease C57BL/6 mouse model assessed as decrease in IFN-gamma mRNA expression level in colon at 25 mg/kg, iv BID and measured after 8 days by real-time PCR analysis; type: functional, organism-based; details: time 8.0 day
Mus musculus [11] = assay: Anti-inflammatory bowel disease activity in DSS-induced inflammatory bowel disease C57BL/6 mouse model assessed as decrease in TNF-alpha mRNA expression level in colon at 25 mg/kg, iv BID and measured after 8 days by real-time PCR analysis; type: functional, organism-based; details: time 8.0 day
Mus musculus [12] = assay: Anti-inflammatory bowel disease activity in DSS-induced inflammatory bowel disease C57BL/6 mouse model assessed as decrease in IL-6 mRNA expression level in colon at 25 mg/kg, iv BID and measured after 8 days by real-time PCR analysis; type: functional, organism-based; details: time 8.0 day
Mus musculus [13] = assay: Anti-inflammatory bowel disease activity in DSS-induced inflammatory bowel disease C57BL/6 mouse assessed as decrease in neutrophil infiltration in colon at 25 mg/kg, iv BID and measured after 8 days by Haematoxylin and eosin staining based microscopy; type: functional, organism-based; details: time 8.0 day
[14] = biological target: T1, 3',5'-cyclic-AMP phosphodiesterase 4D; assay: Inhibition of PDE4D2 (unknown origin)
Mus musculus [15] = assay: Anti-inflammatory bowel disease activity in DSS-induced inflammatory bowel disease C57BL/6 mouse model assessed as decrease in loss of crypt architecture in colon at 25 mg/kg, iv BID and measured after 8 days by Haematoxylin and eosin staining based microscopy; type: functional, organism-based; details: time 8.0 day
Mus musculus [16] = assay: Anti-inflammatory bowel disease activity in DSS-induced inflammatory bowel disease C57BL/6 mouse model assessed as decrease in rectal bleeding by measuring disease activity index score at 25 mg/kg, iv BID and measured upto 8 days by Haem-occult test; type: functional, organism-based; details: time <= 8.0 day
Mus musculus [17] = assay: Anti-inflammatory bowel disease activity in DSS-induced inflammatory bowel disease C57BL/6 mouse model assessed as decrease in goblet cells in colon at 25 mg/kg, iv BID and measured after 8 days by Haematoxylin and eosin staining based microscopy; type: functional, organism-based; details: time 8.0 day
Mus musculus [18] = assay: Anti-inflammatory bowel disease activity in DSS-induced inflammatory bowel disease C57BL/6 mouse model assessed as decrease in IL-10 mRNA expression level in colon at 25 mg/kg, iv BID and measured after 8 days by real-time PCR analysis; type: functional, organism-based; details: time 8.0 day
[19] = Toxicity in twelve hrs fasted Beagle dog assessed as emesis at 1 mg/kg,po and measured upto 180 mins; type: organism-based, Canis lupus familiaris; details: in vivo, 3 h

Row | Compound | IC50 [1] | half-life [2] | further results
1 | COc1c(O)cc2oc3cc4c(c(OCc5cccnc5)c3c(=O)c2c1CC=C(C)C)C=CC(C)(C)O4 | > 1000 nM |  | 
2 | COc1c(OCc2ccc(F)cc2)cc2oc3cc4c(c(OCC5CCNCC5)c3c(=O)c2c1CC=C(C)C)C=CC(C)(C)O4 | 12.4 nM |  | 
3 | COc1c(OCc2ccncc2)cc2oc3cc4c(c(OCc5ccncc5)c3c(=O)c2c1CC=C(C)C)C=CC(C)(C)O4 | 10.6 nM | 16 min | 
4 | COc1c(O)cc2oc3cc4c(c(OCc5ccncc5)c3c(=O)c2c1CC=C(C)C)C=CC(C)(C)O4 | 25 nM | 6.7 min | 
5 | OCCN(CCO)c1nc(N2CCCCC2)c2nc(N(CCO)CCO)nc(N3CCCCC3)c2n1 [DIPYRIDAMOLE] |  |  | IC50 [3]: 600 nM; Activity (Mus musculus [4]): inactive; Activity (Mus musculus [5]): Active; Activity (Mus musculus [6]): Active; Activity (Mus musculus [7]): Active; Activity (Mus musculus [8]): Active; Activity (Mus musculus [9]): Active; Activity (Mus musculus [10]): Active; Activity (Mus musculus [11]): Active; Activity (Mus musculus [12]): Active; Activity (Mus musculus [13]): Active; IC50 [14]: 2800 nM; Activity (Mus musculus [15]): Active; Activity (Mus musculus [16]): Active; Activity (Mus musculus [17]): Active; Activity (Mus musculus [18]): Active
6 | COc1c(OCc2ccc(F)cc2)cc2oc3cc4c(c(OCc5cccnc5)c3c(=O)c2c1CC=C(C)C)C=CC(C)(C)O4 | 8.2 nM |  | 
7 | COc1c(OCc2ccc(F)cc2)cc2oc3cc4c(c(OCc5ccccn5)c3c(=O)c2c1CC=C(C)C)C=CC(C)(C)O4 | 20.2 nM |  | 
8 | COc1ccc(C2CNC(=O)C2)cc1OC1CCCC1 (stereo not drawn) [ROLIPRAM] |  |  | Activity [19]: Toxic
9 | COc1cc2oc3cc4c(c(OCc5ccncc5)c3c(=O)c2c(CC=C(C)C)c1OC)C=CC(C)(C)O4 | 11.7 nM | 2.08 min | 
10 | COc1c(OC(C)C)cc2oc3cc4c(c(OCc5ccncc5)c3c(=O)c2c1CC=C(C)C)C=CC(C)(C)O4 | 5.2 nM | 78 min | 
11 | COc1c(OCc2ccccc2)cc2oc3cc4c(c(OCc5ccncc5)c3c(=O)c2c1CC=C(C)C)C=CC(C)(C)O4 | 1.4 nM | 315 min | 
12 | COc1c(OCc2cccc(F)c2)cc2oc3cc4c(c(OCc5ccncc5)c3c(=O)c2c1CC=C(C)C)C=CC(C)(C)O4 | 7.8 nM |  | 
13 | COc1c(OCc2ccc(F)cc2)cc2oc3cc4c(c(OCc5ccncc5)c3c(=O)c2c1CC=C(C)C)C=CC(C)(C)O4 | 1.4 nM | 33 min | 
14 | CCOc1cc2oc3cc4c(c(OCc5ccncc5)c3c(=O)c2c(CC=C(C)C)c1OC)C=CC(C)(C)O4 | 10.2 nM | 2.98 min | 
15 | COc1c(O)cc2oc3cc4c(c(O)c3c(=O)c2c1CC=C(C)C)C=CC(C)(C)O4 [MANGOSTANIN] |  | 8.1 min | 
16 | COc1c(O)cc2oc3cc4c(c(OCc5ccccn5)c3c(=O)c2c1CC=C(C)C)C=CC(C)(C)O4 | 203 nM | 0.9 min | 
17 | COc1c(O)cc2oc3cc4c(c(OCc5ccccc5)c3c(=O)c2c1CC=C(C)C)C=CC(C)(C)O4 | > 1000 nM |  | 
18 | COc1c(OCc2cccc(F)c2)cc2oc3cc4c(c(OCc5ccccn5)c3c(=O)c2c1CC=C(C)C)C=CC(C)(C)O4 | 9.3 nM |  | 
19 | COc1c(OCc2ccccn2)cc2oc3cc4c(c(OCc5ccccn5)c3c(=O)c2c1CC=C(C)C)C=CC(C)(C)O4 | 6.5 nM | 3 min | 
